From PMC6264316, “The Triterpenes 3β-Lup-20(29)-en-3-ol and 3β-Lup-20(29)-en-3-yl Acetate and the Carbohydrate 1,2,3,4,5,6-Hexa-O-acetyl-dulcitol as Photosynthesis Light Reactions Inhibitors” (Molecules, 2011)

Legend:
[1] = molecular target: T1, Mg2+-ATPase bound to thylakoid membrane (membrane-bound CF1; H+-ATPase) (Spinacia oleracea, UniProt P00825+P06450); assay: light-triggered Mg2+-ATPase activity in thylakoids, released Pi; assay type: biochemical; settings: read-out: Mg^2+-ATPase (%)
T1 construct: gene atpB; with ATP synthase subunit a, chloroplastic; ATP synthase subunit b, chloroplastic; ATP synthase subunit b', chloroplastic; ATP synthase subunit c, chloroplastic
Excerpt: light-triggered Mg2+-ATPase activity in thylakoids, released Pi on Mg2+-ATPase bound to thylakoid membrane (membrane-bound CF1; H+-ATPase)

[2] = molecular target: T2, isolated CF1 (Ca2+-ATPase) (Spinacia oleracea, UniProt P00825+P06450); assay: Ca2+-ATPase activity, released Pi; assay type: biochemical; settings: read-out: Ca^2+-ATPase (%)
T2 construct: gene atpB
Excerpt: Ca2+-ATPase activity, released Pi on isolated CF1 (Ca2+-ATPase)

T2 sequence (P00825 whole entry): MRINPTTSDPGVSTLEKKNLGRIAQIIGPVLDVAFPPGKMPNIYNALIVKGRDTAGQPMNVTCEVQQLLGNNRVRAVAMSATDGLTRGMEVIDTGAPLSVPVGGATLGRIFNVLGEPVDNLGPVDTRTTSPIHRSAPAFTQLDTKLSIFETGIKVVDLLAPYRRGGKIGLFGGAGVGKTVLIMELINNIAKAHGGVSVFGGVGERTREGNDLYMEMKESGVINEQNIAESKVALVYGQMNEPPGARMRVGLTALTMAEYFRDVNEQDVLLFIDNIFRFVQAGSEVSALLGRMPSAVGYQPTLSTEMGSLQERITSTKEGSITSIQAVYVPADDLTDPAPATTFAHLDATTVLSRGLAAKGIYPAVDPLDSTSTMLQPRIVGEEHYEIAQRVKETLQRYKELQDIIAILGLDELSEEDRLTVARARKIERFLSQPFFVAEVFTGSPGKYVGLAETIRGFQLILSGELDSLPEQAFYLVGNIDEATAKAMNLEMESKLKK
T2 sequence (P06450 whole entry): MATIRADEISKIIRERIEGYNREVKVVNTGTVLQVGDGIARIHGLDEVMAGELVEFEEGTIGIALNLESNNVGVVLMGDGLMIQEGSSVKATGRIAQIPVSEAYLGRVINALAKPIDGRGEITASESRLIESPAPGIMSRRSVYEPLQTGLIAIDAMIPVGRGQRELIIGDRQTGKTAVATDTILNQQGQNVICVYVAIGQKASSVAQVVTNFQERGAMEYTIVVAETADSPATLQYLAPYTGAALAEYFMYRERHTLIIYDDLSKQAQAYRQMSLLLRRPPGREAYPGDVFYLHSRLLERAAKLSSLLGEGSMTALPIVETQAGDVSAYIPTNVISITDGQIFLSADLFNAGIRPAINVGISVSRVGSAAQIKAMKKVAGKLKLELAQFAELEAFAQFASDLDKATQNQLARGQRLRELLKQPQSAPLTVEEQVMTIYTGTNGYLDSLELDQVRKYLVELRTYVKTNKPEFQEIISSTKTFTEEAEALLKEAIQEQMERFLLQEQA
T2 sequence (P05435 42-364 partner): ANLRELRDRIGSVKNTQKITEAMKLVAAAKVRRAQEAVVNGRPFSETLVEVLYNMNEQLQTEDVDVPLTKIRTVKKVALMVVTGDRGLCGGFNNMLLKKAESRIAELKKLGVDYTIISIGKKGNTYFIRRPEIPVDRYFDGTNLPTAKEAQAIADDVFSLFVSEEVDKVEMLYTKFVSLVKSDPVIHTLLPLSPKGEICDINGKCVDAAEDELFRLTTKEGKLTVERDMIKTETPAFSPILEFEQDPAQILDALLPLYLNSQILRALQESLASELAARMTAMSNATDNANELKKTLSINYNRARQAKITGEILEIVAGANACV
T2 sequence (P11402 71-257 partner): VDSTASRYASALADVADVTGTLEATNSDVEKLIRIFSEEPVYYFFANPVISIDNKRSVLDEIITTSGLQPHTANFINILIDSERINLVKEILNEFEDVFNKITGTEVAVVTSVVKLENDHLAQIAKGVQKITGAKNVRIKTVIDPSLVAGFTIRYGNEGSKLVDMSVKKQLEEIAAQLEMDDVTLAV
T2 sequence (P00833 whole entry partner): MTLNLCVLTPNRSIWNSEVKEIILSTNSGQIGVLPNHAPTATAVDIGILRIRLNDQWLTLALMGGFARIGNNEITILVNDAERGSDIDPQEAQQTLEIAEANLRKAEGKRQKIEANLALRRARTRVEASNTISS

activity at 100 µM [1]: 65% | activity at 300 µM [2]: 179%
SMILES: C=C(C)[C@@H]1CC[C@]2(C)CC[C@]3(C)[C@H](CC[C@@H]4[C@@]5(C)CC[C@H](O)C(C)(C)[C@@H]5CC[C@]43C)[C@@H]12 [compound 1, 3β-Lup-20(29)-en-3-ol]
